Assay results as given in patent publication US11358977B2, “Deuterated pyridone amides and prodrugs thereof as modulators of sodium channels” (VERTEX PHARMACEUTICALS INCORPORATED, priority 2017, dated 2022).

Key:
[1] = In vitro microsomal metabolic stability assay, rat; type: in vitro ADME; details: rat liver microsomes 0.25 mg/mL, 1.0 μM compound, NADPH
Description: (§1) Materials. Rat, Dog, Monkey and Human liver microsomes (20 mg/mL) were obtained from Xenotech, LLC (Lenexa, Kans.). P-nicotinamide adenine dinucleotide phosphate, reduced form (NADPH), magnesium chloride (MgCl2), and dimethyl sulfoxide (DMSO) were purchased from Sigma-Aldrich.
(§2) Methods. […] The 10 mM stock solutions were diluted to 100 μM in DMSO. In each cluster polypropylene tube, 190.7 μL of 100 mM phosphate buffer, pH 7.4 was added, then 2.5 μL of liver mocrosomes (20 mg/mL, rat, dog, monkey or human) was added, then a 2 μL aliquot of the 100 μM test compound was added, and the mixture was pre-warmed for 10 minutes. Reactions were initiated by addition of 4.8 μL of pre-warmed NADPH solution (100 mM in 100 mM phosphate buffer). The final reaction volume was 200 μL and contained 0.25 mg/mL rat, dog, monkey or human liver microsomes, 1.0 μM test compound, and 2.4 mM NADPH in 0.1 M potassium phosphate buffer, pH 7.4. The reaction mixtures were incubated at 37° C., and the reactions were quenched at 0, 15, 30 and 60 minutes by adding 200 μL of ice-cold quench solution (ACN:MeOH:0.1% formic acid in water 2:2:1) containing internal standard, n=3 per time point. The tubes were centrifuged and supernatants were analyzed for amounts of the test compound remaining by LC-MS/MS. The HPLC system included a Phenomenex Luna C8 column, 3 micron, 2 mm diameter×30 mm long eluted with a gradient mobile phase consisting of 0.1% formic acid in water or in acetonitrile. The analytes were detected by MS/MS with Electrospray Ionization (ESI) in the mode of multiple reaction monitoring (MRM). The injection volume was 10 μL.

[2] = In vitro microsomal metabolic stability assay, dog; type: in vitro ADME; details: dog liver microsomes 0.25 mg/mL, 1.0 μM compound, NADPH
Description: as §1, §2

[3] = In vitro microsomal metabolic stability assay, monkey; type: in vitro ADME; details: monkey liver microsomes 0.25 mg/mL, 1.0 μM compound, NADPH
Description: as §1, §2

human NaV 1.8 = target: T1, human NaV 1.8 (Homo sapiens, UniProt Q9Y5Y9); assay: E-VIPR assay for NaV inhibition; type: cell-based; details: HEK cells expressing human NaV 1.8, E-VIPR, normalised to positive control 25 μM
T1 construct: expressed in transfected cells; host or cells: HEK cells, grown under blasticidin selection; KIR2.1 BacMam virus added before seeding
Text: Sodium ion channels are voltage-dependent proteins that can be activated by inducing membrane voltage changes by applying electric fields. […] The instrument comprises a microtiter plate handler, an optical system for exciting the coumarin dye while simultaneously recording the coumarin and oxonol emissions, a waveform generator, a current- or voltage-controlled amplifier, and parallel electrode pairs that are inserted into assay plate wells. Under integrated computer control, this instrument passes user-programmed electrical stimulus protocols to cells within the wells of the microtiter plate.
The solution was made by adding 10% Pluronic F127 stock equal to combined volumes of CC2-DMPE and DiSBAC6(3).
Then 25 μL per well from compound plate was transferred to each cell plate.
A pre-stimulus recording was performed for 0.5 seconds to obtain the un-stimulated intensities baseline. The stimulatory waveform was followed by 0.5 seconds of post-stimulation recording to examine the relaxation to the resting state.

[4] = In vitro microsomal metabolic stability assay, human; type: in vitro ADME; details: human liver microsomes 0.25 mg/mL, 1.0 μM compound, NADPH
Description: as §1, §2

T1 sequence (Q9Y5Y9 whole entry): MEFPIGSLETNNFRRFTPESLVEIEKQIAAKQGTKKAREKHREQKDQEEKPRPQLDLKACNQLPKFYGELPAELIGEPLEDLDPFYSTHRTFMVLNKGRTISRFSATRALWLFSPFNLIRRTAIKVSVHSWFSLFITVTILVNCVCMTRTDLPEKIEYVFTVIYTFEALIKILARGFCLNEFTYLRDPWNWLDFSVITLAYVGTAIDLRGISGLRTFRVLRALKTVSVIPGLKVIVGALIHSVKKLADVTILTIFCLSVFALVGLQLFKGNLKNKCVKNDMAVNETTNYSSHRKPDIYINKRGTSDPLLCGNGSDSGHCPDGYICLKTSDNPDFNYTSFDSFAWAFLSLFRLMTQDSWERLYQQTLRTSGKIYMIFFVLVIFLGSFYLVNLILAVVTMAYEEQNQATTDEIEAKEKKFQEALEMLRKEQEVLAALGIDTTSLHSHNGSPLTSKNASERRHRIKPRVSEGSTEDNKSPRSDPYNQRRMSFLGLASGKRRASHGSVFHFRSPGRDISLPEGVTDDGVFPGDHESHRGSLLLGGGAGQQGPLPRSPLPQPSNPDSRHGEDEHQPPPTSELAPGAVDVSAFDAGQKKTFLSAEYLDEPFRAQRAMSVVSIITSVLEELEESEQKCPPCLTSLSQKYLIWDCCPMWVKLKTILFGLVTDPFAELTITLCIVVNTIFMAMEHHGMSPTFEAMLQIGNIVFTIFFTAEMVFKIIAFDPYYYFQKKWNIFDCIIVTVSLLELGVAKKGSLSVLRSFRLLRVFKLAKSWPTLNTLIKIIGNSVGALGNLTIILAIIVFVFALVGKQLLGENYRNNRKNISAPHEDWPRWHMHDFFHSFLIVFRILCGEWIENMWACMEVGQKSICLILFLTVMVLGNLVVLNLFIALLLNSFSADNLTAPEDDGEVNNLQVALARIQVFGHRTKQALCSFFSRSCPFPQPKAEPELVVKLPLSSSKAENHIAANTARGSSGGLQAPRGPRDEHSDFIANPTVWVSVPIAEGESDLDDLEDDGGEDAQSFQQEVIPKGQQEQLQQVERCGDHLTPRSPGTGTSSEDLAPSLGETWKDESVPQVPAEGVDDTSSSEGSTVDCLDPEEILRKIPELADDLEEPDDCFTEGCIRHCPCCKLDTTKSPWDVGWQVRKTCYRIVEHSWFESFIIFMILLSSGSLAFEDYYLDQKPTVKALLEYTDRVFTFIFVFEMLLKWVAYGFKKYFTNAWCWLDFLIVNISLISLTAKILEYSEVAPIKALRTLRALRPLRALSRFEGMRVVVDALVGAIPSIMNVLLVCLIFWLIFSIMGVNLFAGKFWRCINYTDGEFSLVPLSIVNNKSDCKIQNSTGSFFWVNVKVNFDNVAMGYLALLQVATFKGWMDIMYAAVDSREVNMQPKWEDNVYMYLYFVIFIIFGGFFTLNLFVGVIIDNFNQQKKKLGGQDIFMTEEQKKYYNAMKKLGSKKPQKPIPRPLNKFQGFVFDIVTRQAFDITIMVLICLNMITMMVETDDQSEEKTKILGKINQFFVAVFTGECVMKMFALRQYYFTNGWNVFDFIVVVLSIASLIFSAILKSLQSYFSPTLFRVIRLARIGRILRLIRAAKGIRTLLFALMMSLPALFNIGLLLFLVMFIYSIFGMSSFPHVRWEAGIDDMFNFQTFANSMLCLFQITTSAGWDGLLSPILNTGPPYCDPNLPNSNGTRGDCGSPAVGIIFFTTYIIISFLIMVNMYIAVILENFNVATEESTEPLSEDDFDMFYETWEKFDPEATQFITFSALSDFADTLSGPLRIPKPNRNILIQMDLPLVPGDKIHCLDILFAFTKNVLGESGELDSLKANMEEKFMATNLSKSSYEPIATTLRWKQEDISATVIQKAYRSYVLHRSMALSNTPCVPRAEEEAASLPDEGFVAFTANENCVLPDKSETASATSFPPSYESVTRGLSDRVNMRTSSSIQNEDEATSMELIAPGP

% remaining ([1]; 0 min): 100%
% remaining ([1]; 15 min): 109%
% remaining ([1]; 30 min): 105%
% remaining ([1]; 60 min): 92.2%
% remaining ([2]; 0 min): 100%
% remaining ([2]; 15 min): 86.1%
% remaining ([2]; 30 min): 85.8%
% remaining ([2]; 60 min): 87.5%
% remaining ([3]; 0 min): 100%
% remaining ([3]; 15 min): 97.0%
% remaining ([3]; 30 min): 93.3%
% remaining ([3]; 60 min): 92.5%
Nav1.8 Max % Activity (human NaV 1.8): 98%
% remaining ([4]; 0 min): 100%
% remaining ([4]; 15 min): 109%
% remaining ([4]; 30 min): 105%
% remaining ([4]; 60 min): 106%
SMILES: [2H]C([2H])([2H])c1cc(F)ccc1Oc1cc(C(F)(F)F)ccc1C(=O)Nc1cc[nH]c(=O)c1 [Compound 7, 2-(4-fluoro-2-(methyl-d3)phenoxy)-N-(2-oxo-1,2-dihydropyridin-4-yl)-4-(trifluoromethyl)benzamide]
